Measurements published in patent US20160213619A1, “INTRAORALLY DISINTEGRABLE TABLET COMPRISING DISINTEGRABLE GRANULAR COMPOSITION” (DAICEL CORPORATION, priority 2013, published 2016).

Assay: distribution coefficient (log P), measured between n-octanol and water
Type: physicochemical
Settings: experimental value, read-out: logP Observed
Method: On the other hand, the measured value of the distribution coefficient is calculated by the following equation using a concentration of a medicinal ingredient dissolved in each of two phases of water and n-octanol, which is obtained by a conventional quantitative method such as absorption spectrophotometry, gas chromatography or liquid chromatography:
Log P=Log [(concentration of the medicinal ingredient in n-octanol phase)/(concentration of the medicinal ingredient in water phase)

logP | SMILES
1.39 | CCOc1ccccc1C(N)=O [ethenzamide]
-2.15 | O=C1O[C@H]([C@@H](O)CO)C(O)=C1O [ascorbic acid]
